# In US10342790B2, “Use of ceranib-2 in the treatment of lung cancer” (ANADOLU UNIVERSITESI REKTORLUGU, priority 2017, dated 2019):
# Key:
# [1] = value mentioned in the sources; read-out: IC50 concentration in cell-based experiments (in the sources); cited from earlier work
# [2] = tested on: A549 human lung adeno-carcinoma cells; test: MTT cyto-toxicity test, A549 cells; assay type: cell-based; conditions: 24 hours incubation, read-out: IC50 concentration in A549 lung cancer cells
# Description: A549 human lung adeno-carcinoma cells have been implanted to the cell culture plates with 96 wells such that there are 2×10^3 cells per well. The cells implanted to the plate have been incubated at 37° C. and in a medium of 5% carbon dioxide. A549 cells have been incubated for 24 hours in the concentration range of 5-65 μM with synthesized ceranib-2. At the end of the duration, 20 μL MTT dye (5 mg/mL) has been added to each well and it has been incubated for 2 hours more at 37° C. After the incubation, the liquid part in each well on the plate is discharged and 200 μL DMSO has been added for dissolving the formazan salts formed by viable cells and it has been waited for 10 minutes at room temperature. The color change occurring has been read at wavelength of 570 nm on the ELx808-IU (Bio-Tek, USA) plate reader. The experiment has been repeated 3 times. Separate viability values have been calculated according to the control group for each dose.
# [3] = tested on: A549 lung cancer cell line; test: Microscopy of structural changes in A549 cells; assay type: cell-based, human; conditions: A549 cells treated for 24 hours
# Excerpt: In FIG. 3, the confocal microscope images of the study made on A549 type cells which is a lung cancer cell line are given.
# FIG. 3: Electron transmission microscope images showing the structural changes in A549 cells.
# 5RP7 cells = test: IC50 in 5RP7 cells (cytotoxicity); assay type: cell-based; conditions: read-out: IC50 concentration in 5RP7 cells
# NIH/3T3 cells = test: IC50 in NIH/3T3 cells (cytotoxicity); assay type: cell-based; conditions: read-out: IC50 concentration in NIH/3T3 cells
# [4] = tested on: MCF-7 human breast cancer cells; test: IC50 in MCF-7 cells (cytotoxicity); assay type: cell-based; conditions: read-out: IC50 concentration in MCF-7 human breast cancer cells
# MCF-7 cell line = test: Confocal microscopy of MCF-7 cells; assay type: cell-based, human; conditions: MCF-7 cells treated for 24 hours, acridine orange and phalloidine
# Excerpt: In FIG. 1, the confocal microscopy images are provided belonging to the study made on the MCF-7 cell line. In the control cells, a tight and normal cell and cell nucleus structure are seen (FIG. 1A).
# FIG. 1: Confocal electron transmission microscope image of MCF-7 cells painted with acridine orange and phalloidine.
# synergistic tumor model = conditions: 20-50 mg/kg; cited from earlier work
# MCF-7 cells = test: Electron micrographs of MCF-7 cells; assay type: cell-based, human; conditions: MCF-7 cells treated for 24 hours
# Excerpt: In FIG. 2, electron micrographs of the MCF-7 cells are seen.
# FIG. 2: Electron transmission micrographs of MCF-7 cells.
smiles,measurement,setting,value
"COc1ccc(C=CC(=O)c2c(-c3ccccc3)c3ccccc3[nH]c2=O)cc1 [ceranib-2, 3-[3-(4-methoxyphenyl)-1-oxo-2-prpen-1-yl]-4-phenyl-2(1H)-quinolinone]",IC50,[1],~28 µM
same,IC50,[2],14 µM
same,"Structural changes in cells, microscopy (FIG. 3)",[3],"the cell nucleus is fragmentized, the cell shape is transformed from oval to round and deformations begin in the cell membrane, lipid drops are formed inside the cell, DNA fragmentizing occurs and holes occur inside the cell"
same,IC50,5RP7 cells,3 µM
same,IC50,NIH/3T3 cells,5 µM
same,IC50,[4],13 µM
same,"Cell morphology, confocal microscopy (FIG. 1)",MCF-7 cell line,"condensation is observed in the chromatin, holes are observed in the cell structure, shrunken cell nucleus is observed and fragmentizing cells are observed"
same,Toxicity in vivo,synergistic tumor model,without leading to toxicity
same,Tumor growth,synergistic tumor model,inhibits tumor growth
same,"Cell ultrastructure, electron micrographs (FIG. 2)",MCF-7 cells,the nucleus membrane is lost and the mitochondria is deformed
